Results: US9676773B2, “Azaindole derivative” (TAIHO PHARMACEUTICAL CO., LTD., priority 2014, dated 2017)

How the values were obtained:
Format in all cases: biochemical
[1] = molecular target: T1, purified recombinant human JAK1 protein (Homo sapiens, UniProt P23458); experiment: Measurement of JAK1 kinase-inhibitory activity; settings: substrate peptide 1 μM, ATP 75 M (so in the source), 25° C., 120 minutes
T1 construct: purchased Carna Biosciences, Inc
Experimental: 1) Measurement of JAK1 Kinase-Inhibitory Activity
The activity of the compound of the present invention to inhibit the activity of JAK1 kinase was measured.
(§1) Among materials for the measurement of this inhibitory activity, a substrate peptide and a kinase protein were acquired as follows. As such a substrate peptide, a substrate peptide for QSS Assist™ JAK1-MSA assay kit (Carna Biosciences, Inc.) was purchased. As such a kinase protein, a purified recombinant human JAK1 protein (Carna Biosciences, Inc.) was purchased.
The method for measuring the inhibitory activity is as follows. First, the compounds of the present invention were each dissolved in dimethyl sulfoxide (DMSO), and a serial dilution was then prepared by the use of DMSO. Subsequently, a serial dilution solution of the compound (the final concentration of DMSO upon a kinase reaction: 5.0%) or DMSO (final concentration: 5.0%) was mixed with a solution containing the substrate peptide (final concentration: 1 μM), magnesium chloride (final concentration: 5 mM) and ATP (final concentration: 75 µM) in a buffer for kinase reaction (20 mM HEPES (pH 7.5), 2 mM dithiothreitol and 0.01% Triton X-100). Thereafter, a JAK1 protein was further added to the mixed solution, and the obtained mixture was then incubated at 25° C. for 120 minutes to carry out a kinase reaction. To the reaction solution, EDTA was added to a final concentration of 30 mM, so as to terminate the reaction. Finally, with LabChip EZ Reader II (Perkin Elmer Corp.), an unphosphorylated substrate peptide (S) and a phosphorylated peptide (P) were subjected to microchannel capillary electrophoresis, so that the two peptides were separated from each other and were then detected. The amount of a phosphorylation reaction was obtained based on the heights of the peaks of S and P, and the concentration of the compound capable of inhibiting 50% of the phosphorylation reaction was defined as an IC50 value (nM).

[2] = molecular target: T2, purified recombinant human JAK2 protein (Homo sapiens, UniProt O60674); experiment: Measurement of JAK2 kinase-inhibitory activity; settings: FL-Peptide 22 1 μM, ATP 10 μM, 25° C., 80 minutes
T2 construct: purchased Carna Biosciences, Inc
Experimental: 2) Measurement of JAK2 Kinase-Inhibitory Activity
The activity of the compound of the present invention to inhibit the activity of JAK2 kinase was measured.
as §1, with “FL-Peptide 22 (Perkin Elmer Corp.)” for “a substrate peptide for QSS Assist™ JAK1-MSA assay kit (Carna Biosciences, Inc.)”, “JAK2” for “JAK1”
(§2) The method for measuring the inhibitory activity is as follows. First, a serial dilution of the compound of the present invention was prepared by the same method as that described in the above section regarding JAK1. This serial dilution solution (the final concentration of DMSO upon a kinase reaction: 5.0%) or DMSO (final concentration: 5.0%) was mixed with a solution containing the substrate peptide (final concentration: 1 μM), magnesium chloride (final concentration: 10 mM) and ATP (final concentration: 10 μM) in a buffer for kinase reaction (15 mM Tris (pH 7.5), 2 mM dithiothreitol and 0.01% Tween 20). Thereafter, a JAK2 protein was further added to the mixed solution, and the obtained mixture was then incubated at 25° C. for 80 minutes to carry out a kinase reaction. To the reaction solution, EDTA was added to a final concentration of 30 mM, so as to terminate the reaction. After termination of the reaction, the measurement and the data analysis were carried out by the same methods as those described in the above section regarding JAK1.

[3] = molecular target: T3, purified recombinant human JAK3 protein (Homo sapiens, UniProt P52333); experiment: Measurement of JAK3 kinase-inhibitory activity; settings: substrate peptide 1 μM, ATP 5 μM, 25° C., 80 minutes
T3 construct: purchased Carna Biosciences, Inc
T3 sequence (P52333 1-1124): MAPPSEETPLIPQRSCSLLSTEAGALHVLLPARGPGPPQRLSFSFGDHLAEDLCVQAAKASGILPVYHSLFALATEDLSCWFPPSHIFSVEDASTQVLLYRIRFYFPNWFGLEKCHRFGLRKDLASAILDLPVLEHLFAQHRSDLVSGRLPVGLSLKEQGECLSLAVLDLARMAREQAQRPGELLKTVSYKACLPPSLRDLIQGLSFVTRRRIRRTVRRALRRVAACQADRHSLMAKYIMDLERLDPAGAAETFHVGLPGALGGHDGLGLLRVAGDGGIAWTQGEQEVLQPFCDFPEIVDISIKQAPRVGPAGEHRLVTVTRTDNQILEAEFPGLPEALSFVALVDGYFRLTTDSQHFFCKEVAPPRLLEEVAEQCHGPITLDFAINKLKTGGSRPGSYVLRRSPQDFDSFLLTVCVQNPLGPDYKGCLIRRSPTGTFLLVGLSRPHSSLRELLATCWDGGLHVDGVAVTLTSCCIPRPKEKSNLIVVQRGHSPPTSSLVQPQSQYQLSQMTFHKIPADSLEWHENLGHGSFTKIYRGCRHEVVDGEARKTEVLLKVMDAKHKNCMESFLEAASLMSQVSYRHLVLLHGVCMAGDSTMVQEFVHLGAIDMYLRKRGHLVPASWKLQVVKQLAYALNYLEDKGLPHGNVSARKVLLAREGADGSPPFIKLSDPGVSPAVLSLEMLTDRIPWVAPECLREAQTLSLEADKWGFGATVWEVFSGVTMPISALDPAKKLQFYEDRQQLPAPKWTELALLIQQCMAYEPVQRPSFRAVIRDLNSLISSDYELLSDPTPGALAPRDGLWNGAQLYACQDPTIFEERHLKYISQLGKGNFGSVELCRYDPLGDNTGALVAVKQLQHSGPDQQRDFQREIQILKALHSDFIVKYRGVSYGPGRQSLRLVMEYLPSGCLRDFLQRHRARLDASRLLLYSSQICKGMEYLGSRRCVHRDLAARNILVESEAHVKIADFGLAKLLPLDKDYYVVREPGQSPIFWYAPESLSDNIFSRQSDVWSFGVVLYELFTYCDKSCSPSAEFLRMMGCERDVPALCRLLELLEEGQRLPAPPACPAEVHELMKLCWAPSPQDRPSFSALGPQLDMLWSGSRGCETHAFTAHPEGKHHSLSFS
Experimental: 3) Measurement of JAK3 Kinase-Inhibitory Activity
The activity of the compound of the present invention to inhibit the activity of JAK3 kinase was measured.
as §1, with “JAK3-MSA” for “JAK1-MSA”, “JAK3” for “JAK1”
as §2, with “5” for “10”, “(20” for “(15”, “HEPES” for “Tris”, “Triton X-100).” for “Tween 20).”, “JAK3” for “JAK2”

T1 sequence (P23458 whole entry): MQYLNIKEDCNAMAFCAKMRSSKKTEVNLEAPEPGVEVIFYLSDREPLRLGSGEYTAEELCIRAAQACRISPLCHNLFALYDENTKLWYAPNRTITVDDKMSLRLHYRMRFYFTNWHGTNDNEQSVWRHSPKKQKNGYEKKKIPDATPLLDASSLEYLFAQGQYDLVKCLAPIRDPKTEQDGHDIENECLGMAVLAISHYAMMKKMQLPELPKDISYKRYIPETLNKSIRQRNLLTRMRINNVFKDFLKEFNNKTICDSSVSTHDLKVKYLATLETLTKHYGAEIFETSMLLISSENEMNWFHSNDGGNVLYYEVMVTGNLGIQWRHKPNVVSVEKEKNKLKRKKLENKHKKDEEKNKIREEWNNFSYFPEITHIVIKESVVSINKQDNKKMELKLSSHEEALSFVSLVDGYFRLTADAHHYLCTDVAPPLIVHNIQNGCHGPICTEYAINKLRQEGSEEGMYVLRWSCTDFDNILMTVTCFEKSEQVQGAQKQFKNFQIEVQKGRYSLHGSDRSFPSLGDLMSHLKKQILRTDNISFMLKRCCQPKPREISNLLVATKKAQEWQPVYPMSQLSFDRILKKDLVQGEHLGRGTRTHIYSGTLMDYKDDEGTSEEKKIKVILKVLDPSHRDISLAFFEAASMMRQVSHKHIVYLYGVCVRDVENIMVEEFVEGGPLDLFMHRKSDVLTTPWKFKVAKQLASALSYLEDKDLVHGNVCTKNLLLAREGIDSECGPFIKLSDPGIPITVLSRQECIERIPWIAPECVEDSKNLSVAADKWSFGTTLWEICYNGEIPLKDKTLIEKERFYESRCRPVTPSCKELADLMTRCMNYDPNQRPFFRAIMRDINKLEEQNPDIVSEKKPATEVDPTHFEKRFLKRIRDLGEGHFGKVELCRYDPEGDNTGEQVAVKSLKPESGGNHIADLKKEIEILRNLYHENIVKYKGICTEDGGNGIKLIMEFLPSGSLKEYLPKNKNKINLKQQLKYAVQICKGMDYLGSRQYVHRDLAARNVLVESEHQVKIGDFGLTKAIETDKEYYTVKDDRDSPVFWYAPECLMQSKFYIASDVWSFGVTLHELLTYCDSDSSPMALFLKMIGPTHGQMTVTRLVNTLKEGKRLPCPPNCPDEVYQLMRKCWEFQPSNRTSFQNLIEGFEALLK
T2 sequence (O60674 whole entry): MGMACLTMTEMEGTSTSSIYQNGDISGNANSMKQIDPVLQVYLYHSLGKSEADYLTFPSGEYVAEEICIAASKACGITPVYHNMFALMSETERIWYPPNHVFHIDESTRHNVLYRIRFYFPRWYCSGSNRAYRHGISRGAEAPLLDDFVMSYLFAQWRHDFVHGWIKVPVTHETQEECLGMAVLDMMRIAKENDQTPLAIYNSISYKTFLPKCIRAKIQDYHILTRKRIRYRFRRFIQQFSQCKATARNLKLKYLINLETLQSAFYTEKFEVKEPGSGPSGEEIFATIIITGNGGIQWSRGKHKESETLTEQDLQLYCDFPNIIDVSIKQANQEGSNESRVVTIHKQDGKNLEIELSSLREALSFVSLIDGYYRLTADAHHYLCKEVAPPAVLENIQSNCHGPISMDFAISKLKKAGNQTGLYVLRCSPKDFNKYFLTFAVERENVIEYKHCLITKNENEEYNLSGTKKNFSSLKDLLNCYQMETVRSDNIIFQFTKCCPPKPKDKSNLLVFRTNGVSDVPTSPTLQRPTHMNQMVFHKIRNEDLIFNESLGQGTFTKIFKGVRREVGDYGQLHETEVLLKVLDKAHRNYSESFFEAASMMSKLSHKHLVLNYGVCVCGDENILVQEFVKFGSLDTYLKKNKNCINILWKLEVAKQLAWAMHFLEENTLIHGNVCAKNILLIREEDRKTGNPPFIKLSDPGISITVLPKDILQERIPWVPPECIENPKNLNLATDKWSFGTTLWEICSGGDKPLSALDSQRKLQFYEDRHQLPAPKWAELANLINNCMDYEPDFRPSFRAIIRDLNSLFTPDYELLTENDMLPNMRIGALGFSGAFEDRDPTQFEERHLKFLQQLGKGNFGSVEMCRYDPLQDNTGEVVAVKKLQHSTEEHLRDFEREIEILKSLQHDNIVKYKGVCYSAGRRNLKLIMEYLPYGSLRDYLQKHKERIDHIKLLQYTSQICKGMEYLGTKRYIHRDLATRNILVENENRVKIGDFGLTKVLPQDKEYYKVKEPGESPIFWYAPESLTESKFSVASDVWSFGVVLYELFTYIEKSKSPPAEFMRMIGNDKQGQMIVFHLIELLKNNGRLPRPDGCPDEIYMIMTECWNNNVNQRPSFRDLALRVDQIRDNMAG

IC50 [1] | IC50 [2] | IC50 [3] | Structure (SMILES)
2400 nM | 430 nM | < 0.3 nM | C=CC(=O)NC1CCC=C(c2ccnc3[nH]cc(-c4ccc(C=O)o4)c23)C1 (stereo not drawn) [Compound 9, N-(3-(3-(5-Formylfuran-2-yl)-1H-pyrrolo[2,3-b]pyridin-4-yl)cyclohex-3-en-1-yl)acrylamide]
7000 nM | 2600 nM | 0.53 nM | C=CC(=O)NC1CCC=C(c2ccnc3[nH]cc(-c4cccnc4)c23)C1 (stereo not drawn) [Compound 4, N-(3-(3-(Pyridin-3-yl)-1H-pyrrolo[2,3-b]pyridin-4-yl)cyclohex-3-en-1-yl)acrylamide]
